Literature values, collected in patent publication US6475478B2, “Adsorbent, adsorbing and removing process and adsorber for endogenous cannabinoid” (Kaneka Corporation, priority 2000, dated 2002).

Conditions: octanol-water system; compound fixed on the carrier

SMILES | log P
CCCCN [n-butyl amine] | 0.97
CCCCCCCCCCN [n-decyl amine] | 4.07
